Measured values as given in patent publication US7915282B2, “C2-phenyl-substituted cyclic keto-enols used as pesticides and herbicides” (Bayer Aktiengesellschaft, priority 2000, dated 2011).

Legend:
Type in all cases: in vivo
Avena fatua = assay: Post-emergence test; conditions: 60 g ai/ha, after three weeks
Experimental: (§1) [table] To produce a suitable preparation of active compound, 1 part by weight of active compound is mixed with the stated amount of solvent, the stated amount of emulsifier is added and the concentrate is diluted with water to the desired concentration. Test plants of a height of 5-15 cm are sprayed with the preparation of active compound such that the particular amounts of active compound desired are applied per unit area. The concentration of the spray liquor is chosen such that the particular amount of active compound desired is applied in 1000 l of water/ha. After three weeks, the degree of damage to the plants is rated in % damage in comparison to the development of the untreated control. The figures denote: [table]

Sugar beet = assay: Post-emergence test; conditions: 60 g ai/ha, after three weeks
Experimental: as §1

Digitaria [1] = assay: Post-emergence test; conditions: 60 g ai/ha, after three weeks
Experimental: as §1

Setaria [2] = assay: Post-emergence test; conditions: 60 g ai/ha, after three weeks
Experimental: as §1

Alopecurus [3] = assay: Post-emergence test; conditions: 60 g ai/ha, after three weeks
Experimental: as §1

Polygonum = assay: Post-emergence test; conditions: 60 g ai/ha, after three weeks
Experimental: as §1

Soya bean = assay: Pre-emergence test; conditions: 125 g ai/ha, after three weeks
Experimental: (§2) [table] To produce a suitable preparation of active compound, 1 part by weight of active compound is mixed with the stated amount of solvent, the stated amount emulsifier is added and the concentrate is diluted with water to the desired concentration. Seeds of the test plants are sown in normal soil. After about 24 hours, the soil is sprayed with the preparation of active compound such that the particular amounts of active compound desired are applied per unit area. The concentration of the spray liquor is chosen such that the particular amounts of active compound desired are applied in 1000 l of water/ha. After three weeks, the degree of damage to the plants is rated in % damage in comparison to the development of the untreated controls. The figures denote: [table]

Cyperus = assay: Pre-emergence test; conditions: 125 g ai/ha, after three weeks
Experimental: as §2

Abutilo = assay: Pre-emergence test; conditions: 125 g ai/ha, after three weeks
Experimental: as §2

Digitaria [4] = assay: Pre-emergence test; conditions: 125 g ai/ha, after three weeks
Experimental: as §2

Setaria [5] = assay: Pre-emergence test; conditions: 125 g ai/ha, after three weeks
Experimental: as §2

Lolium = assay: Pre-emergence test; conditions: 125 g ai/ha, after three weeks
Experimental: as §2

Alopecurus [6] = assay: Pre-emergence test; conditions: 125 g ai/ha, after three weeks
Experimental: as §2

Bromus = assay: Pre-emergence test; conditions: 125 g ai/ha, after three weeks
Experimental: as §2

[7] = system: greenhouse red spider mite (Tetranychus urticae); assay: Tetranychus test (OP-resistant/dip treatment); conditions: active compound concentration of 1000 ppm; after 7 days; infested bean plants dipped
Experimental: [table] To produce a suitable preparation of active compound, 1 part by weight of active compound is mixed with the stated amounts of solvent and emulsifier, and the concentrate is diluted with emulsifier-containing water to the desired concentration. Bean plants (Phaseolus vulgaris) which are heavily infested by all stages of the greenhouse red spider mite (Tetranychus urticae) are dipped into a preparation of active compound of the desired concentration. After the desired period of time, the effect in % is determined. 100% means that all spider mites have been killed; 0% means that none of the spider mites have been killed.

[8] = system: peach aphids (Myzus persicae); assay: Myzus test; conditions: active compound concentration of 1000 ppm; after 6 days; infested cabbage leaves dipped
Experimental: [table] To produce a suitable preparation of active compound, 1 part by weight of active compound is mixed with the stated amounts of solvent and emulsifier, and the concentrate is diluted with emulsifier-containing water to the desired concentration. Cabbage leaves (Brassica oleracea) which are heavily infested by the peach aphids (Myzus persicae) are treated by being dipped into the preparation of active compound of the desired concentration. After the desired period of time, the kill in % is determined. 100% means that all aphids have been killed; 0% means that none of the aphids have been killed.

**Q.** `C#Cc1cc(C)c(C2=C(OC(=O)OCC)C3(CCC(OC)CC3)NC2=O)c(C)c1` (stereo not shown) [Example I-1-c-4] was tested. Which “% damage Avena fatua” value (Avena fatua) did it give?
**A.** Its value is 90%.

**Q.** And the “% damage Sugar beet” value (Sugar beet)?
**A.** The value was 10%.

**Q.** What about the “% damage Digitaria” value (Digitaria [1]) of the same compound?
**A.** Its value is 95%.

**Q.** And the “% damage Setaria” value (Setaria [2])?
**A.** The value was 100%.

**Q.** What about the “% damage Alopecurus” value (Alopecurus [3]) of the same compound?
**A.** The value was 90%.

**Q.** What about the “% damage Polygonum” value (Polygonum) of the same compound?
**A.** The value was 70%.

**Q.** What about the “% damage Soya bean” value (Soya bean) of the same compound?
**A.** The value was 20%.

**Q.** What about the “% damage Cyperus” value (Cyperus) of the same compound?
**A.** The value was 100%.

**Q.** And the “% damage Abutilo” value (Abutilo)?
**A.** The value was 70%.

**Q.** And the “% damage Digitaria” value (Digitaria [4])?
**A.** Its value is 100%.

**Q.** What about the “% damage Setaria” value (Setaria [5]) of the same compound?
**A.** Its value is 100%.

**Q.** What about the “% damage Lolium” value (Lolium) of the same compound?
**A.** Its value is 100%.

**Q.** And the “% damage Alopecurus” value (Alopecurus [6])?
**A.** The value was 95%.

**Q.** And the “% damage Bromus” value (Bromus)?
**A.** Its value is 100%.

**Q.** What about the kill in % [7] of the same compound?
**A.** The kill in % was 100%.

**Q.** What about the kill in % [8] of the same compound?
**A.** The kill in % was 100%.
